In the NIST ThermoML archive (doi:10.1016/j.fluid.2007.08.010):
Numbers after ± are expanded uncertainties.

Conditions: Liquid, Falling or rolling sphere viscometry

c1ccccc1 [benzene]
viscosity [mPa·s]
Conditions	690 kPa	5000 kPa	10000 kPa	20000 kPa	30000 kPa	40000 kPa	50000 kPa	60000 kPa
313.2 K	0.479 ± 0.02	0.5 ± 0.02	0.524 ± 0.021	0.574 ± 0.023	0.625 ± 0.025	0.675 ± 0.027	0.725 ± 0.029	0.774 ± 0.031
333.2 K	0.387 ± 0.016	0.404 ± 0.016	0.424 ± 0.017	0.466 ± 0.019	0.509 ± 0.021	0.553 ± 0.023	0.597 ± 0.024	0.641 ± 0.026
353.2 K	0.317 ± 0.013	0.331 ± 0.013	0.347 ± 0.014	0.38 ± 0.015	0.415 ± 0.017	0.451 ± 0.018	0.489 ± 0.02	0.526 ± 0.021
373.2 K	0.269 ± 0.011	0.279 ± 0.011	0.291 ± 0.012	0.316 ± 0.013	0.344 ± 0.014	0.372 ± 0.015	0.402 ± 0.016	0.434 ± 0.018
393.2 K	0.239 ± 0.01	0.246 ± 0.01	0.255 ± 0.01	0.273 ± 0.011	0.294 ± 0.012	0.315 ± 0.013	0.339 ± 0.014	0.364 ± 0.015

CCCCCCCCCCCCCC [tetradecane]
viscosity [mPa·s]
Conditions	690 kPa	5000 kPa	10000 kPa	20000 kPa	30000 kPa	40000 kPa	50000 kPa	60000 kPa
313.2 K	1.653 ± 0.068	1.738 ± 0.071	1.831 ± 0.075	2.025 ± 0.083	2.241 ± 0.092	2.483 ± 0.1	2.767 ± 0.11	3.093 ± 0.13
333.2 K	1.218 ± 0.05	1.283 ± 0.053	1.345 ± 0.055	1.473 ± 0.06	1.607 ± 0.066	1.74 ± 0.071	1.886 ± 0.077	2.043 ± 0.084
353.2 K	0.896 ± 0.037	0.957 ± 0.039	1.017 ± 0.042	1.128 ± 0.046	1.229 ± 0.05	1.325 ± 0.054	1.423 ± 0.058	1.518 ± 0.062
373.2 K	0.66 ± 0.027	0.708 ± 0.029	0.757 ± 0.031	0.852 ± 0.035	0.943 ± 0.039	1.031 ± 0.042	1.117 ± 0.046	1.202 ± 0.049
393.2 K	0.527 ± 0.022	0.568 ± 0.023	0.609 ± 0.025	0.687 ± 0.028	0.767 ± 0.031	0.839 ± 0.034	0.908 ± 0.037	0.976 ± 0.04
